According to ChEMBL document CHEMBL1201862, “PubChem BioAssay data set” (2004):
Where “and” joins values, the source holds several entries; their conditions need not be identical. Equal entries are not always repeated. Calls of active or inactive are those of the source.

Columns and labels:
Bcl-2-like protein 10 = biological target: T1, Bcl-2-like protein 10 (Homo sapiens, UniProt Q9HD36); test: Bcl-B/TR3 peptide binding disruption – biochemical, fluorescence polarization, FITC-TR3 peptide, selectivity assay for Bfl-1 inhibitor project, primary screen (AID 748);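 note: fluorescence polarization from a fluorescein-labelled TR3 peptide binding purified Bcl-B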
T1 sequence (Q9HD36 whole entry): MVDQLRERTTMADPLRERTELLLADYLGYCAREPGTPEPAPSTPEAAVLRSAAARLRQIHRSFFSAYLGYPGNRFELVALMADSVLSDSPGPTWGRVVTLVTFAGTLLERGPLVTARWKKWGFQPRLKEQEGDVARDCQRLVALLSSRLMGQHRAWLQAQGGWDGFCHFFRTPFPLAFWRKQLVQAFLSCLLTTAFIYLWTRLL

[1] = biological target: Alkaline phosphatase, placental type (Homo sapiens, UniProt P05187); test: human placental alkaline phosphatase inhibition – biochemical, luminescence, confirmation (AID 1512); type: functional
[2] = biological target: T2, Alkaline phosphatase, tissue-nonspecific isozyme (Homo sapiens, UniProt P05186); test: potency against alkaline phosphatase TNAP – biochemical, luminescent, dose response, SAR follow-up (AID 1056)
T2 sequence (P05186 whole entry): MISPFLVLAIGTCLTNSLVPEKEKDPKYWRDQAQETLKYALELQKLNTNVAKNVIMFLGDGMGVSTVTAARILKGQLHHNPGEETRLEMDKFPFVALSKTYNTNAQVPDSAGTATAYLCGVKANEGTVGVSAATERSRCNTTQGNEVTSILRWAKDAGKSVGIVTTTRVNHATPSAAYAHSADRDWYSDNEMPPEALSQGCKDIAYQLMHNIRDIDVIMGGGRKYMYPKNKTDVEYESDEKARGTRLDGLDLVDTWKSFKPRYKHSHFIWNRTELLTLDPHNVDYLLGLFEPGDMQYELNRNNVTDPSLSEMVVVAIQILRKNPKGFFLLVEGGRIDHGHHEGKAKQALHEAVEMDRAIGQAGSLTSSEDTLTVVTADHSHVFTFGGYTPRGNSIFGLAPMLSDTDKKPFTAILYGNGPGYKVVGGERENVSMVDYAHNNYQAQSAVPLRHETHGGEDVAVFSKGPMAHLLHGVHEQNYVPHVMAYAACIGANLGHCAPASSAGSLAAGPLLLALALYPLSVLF

Large T antigen = Large T antigen (Simian virus 40, UniProt P03070); type: functional, Betapolyomavirus macacae;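 note: Confirmatory-stage PubChem screen for compounds that inhibit SV40 T antigen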
Leucine aminopeptidase = biological target: T3, Leucine aminopeptidase (Plasmodium falciparum 3D7, UniProt Q8IL11); test: P. falciparum M17LAP inhibitors, primary screen, biochemical, fluorogenic H-Leu-NHMec substrate, 1536-well (AID 1619); type: functional
T3 sequence (Q8IL11 whole entry): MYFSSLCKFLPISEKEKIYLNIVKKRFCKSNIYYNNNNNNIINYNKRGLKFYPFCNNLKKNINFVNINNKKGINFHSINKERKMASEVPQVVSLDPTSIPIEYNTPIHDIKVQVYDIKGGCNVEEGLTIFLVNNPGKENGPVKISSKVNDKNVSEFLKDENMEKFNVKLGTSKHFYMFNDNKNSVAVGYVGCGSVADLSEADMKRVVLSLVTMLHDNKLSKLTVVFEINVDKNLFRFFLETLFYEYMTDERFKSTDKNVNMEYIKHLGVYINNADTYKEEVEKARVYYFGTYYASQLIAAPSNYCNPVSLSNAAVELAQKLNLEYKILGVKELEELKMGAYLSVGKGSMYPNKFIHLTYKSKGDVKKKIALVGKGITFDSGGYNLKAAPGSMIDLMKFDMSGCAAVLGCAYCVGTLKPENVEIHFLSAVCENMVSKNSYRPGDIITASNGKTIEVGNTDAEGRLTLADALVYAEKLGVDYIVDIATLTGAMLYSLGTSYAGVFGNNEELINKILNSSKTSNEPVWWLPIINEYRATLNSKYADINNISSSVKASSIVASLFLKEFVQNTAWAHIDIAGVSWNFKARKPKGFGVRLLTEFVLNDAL

[3] = biological target: Voltage-dependent T-type calcium channel subunit alpha-1H (Homo sapiens, UniProt O95180); test: human CACNA1H calcium influx blockade – cell-based, synthetic library set 1, calcium flux (AID 493022); type: functional
[4] = biological target: Eukaryotic translation initiation factor 4H (Homo sapiens, UniProt Q15056); test: inhibitors of translation initiation factor eIF4H – SAR follow-up (AID 435011); type: functional
[5] = biological target: Polyadenylate-binding protein 1 (Homo sapiens, UniProt P11940); test: PABP inhibition in translation initiation, SAR follow-up (AID 435018); type: functional
[6] = biological target: DNA dC->dU-editing enzyme APOBEC-3G (Homo sapiens, UniProt Q9HC16); type: functional;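 note: Dose-response counterscreen measuring inhibition of APOBEC3G DNA deaminase activity, run while confirming APOBEC3A inhibitors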
[7] = biological target: DNA dC->dU-editing enzyme APOBEC-3A (Homo sapiens, UniProt P31941); test: Dose Response confirmation of small molecule APOBEC3A DNA Deaminase Inhibitors via a fluorescence-based single-stranded DNA deaminase assay. [Related pubchem assays (depositor defined):AID493011, AID493024]; type: functional
[8] = biological target: T4, Replicative DNA helicase DnaB (Mycobacterium tuberculosis, UniProt P9WMR3); test: DnaB intein splicing inhibitors, dose response, biochemical, cell-free fluorescence (AID 449749); type: functional
T4 sequence (P9WMR3 whole entry): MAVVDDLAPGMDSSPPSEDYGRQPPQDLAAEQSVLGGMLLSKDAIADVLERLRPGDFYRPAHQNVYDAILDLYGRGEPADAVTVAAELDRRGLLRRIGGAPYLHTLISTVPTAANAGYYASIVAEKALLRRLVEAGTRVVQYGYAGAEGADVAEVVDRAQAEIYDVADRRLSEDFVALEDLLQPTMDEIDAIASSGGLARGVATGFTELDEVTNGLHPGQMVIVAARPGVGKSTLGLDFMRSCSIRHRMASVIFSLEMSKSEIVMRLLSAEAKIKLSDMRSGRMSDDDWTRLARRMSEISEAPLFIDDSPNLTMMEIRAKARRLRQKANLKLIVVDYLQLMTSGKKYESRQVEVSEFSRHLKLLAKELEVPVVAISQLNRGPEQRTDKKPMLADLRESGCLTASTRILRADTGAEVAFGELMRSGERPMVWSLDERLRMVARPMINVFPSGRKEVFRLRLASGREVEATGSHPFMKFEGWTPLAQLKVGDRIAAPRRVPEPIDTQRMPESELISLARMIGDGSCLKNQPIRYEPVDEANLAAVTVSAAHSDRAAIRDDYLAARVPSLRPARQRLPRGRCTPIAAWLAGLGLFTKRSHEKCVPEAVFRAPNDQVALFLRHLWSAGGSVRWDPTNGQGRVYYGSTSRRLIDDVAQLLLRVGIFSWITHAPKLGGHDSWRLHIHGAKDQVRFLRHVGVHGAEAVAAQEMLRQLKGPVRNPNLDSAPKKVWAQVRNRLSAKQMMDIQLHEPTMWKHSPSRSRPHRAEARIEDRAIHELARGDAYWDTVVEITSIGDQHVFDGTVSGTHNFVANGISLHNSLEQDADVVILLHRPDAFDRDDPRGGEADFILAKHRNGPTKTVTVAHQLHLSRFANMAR

[9] = viability of PTEN-deleted HCT116 cells – cell-based, HCT116 PTEN knockout, dose response (AID 1047); type: functional;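 note: HCT116 colon tumor cells with PTEN knocked out; cells exposed to compound for 60 hours before readout; potency for loss of cell viability measured by luminescence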
[10] = biological target: NACHT, LRR and PYD domains-containing protein 1 (Homo sapiens, UniProt Q9C000); test: NALP1 inhibitors in yeast, dose response, luminescent (AID 488860); type: functional
Saccharomyces cerevisiae = test: S. cerevisiae Caspase-1/ASC signal blockers IC50, NALP1 inhibitor project selectivity test (AID 488863); type: functional, organism-based
[11] = viability of HCT116 lacking mutant beta-catenin – cell-based, human colon tumor, dose response (AID 1045); type: functional;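 note: HCT116 colon tumor cells with beta catenin knocked out; cells exposed to compound for 60 hours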
Protein RecA = biological target: T5, Protein RecA (Mycobacterium tuberculosis, UniProt P9WHJ3); test: Fluorescence Cell-Free Homogeneous Dose Retest to Identify Inhibitors of RecA-Intein Splicing Activity. [Related pubchem assays (depositor defined):AID2097, AID2223, AID489010, AID492950]; type: functional
T5 sequence (P9WHJ3 whole entry): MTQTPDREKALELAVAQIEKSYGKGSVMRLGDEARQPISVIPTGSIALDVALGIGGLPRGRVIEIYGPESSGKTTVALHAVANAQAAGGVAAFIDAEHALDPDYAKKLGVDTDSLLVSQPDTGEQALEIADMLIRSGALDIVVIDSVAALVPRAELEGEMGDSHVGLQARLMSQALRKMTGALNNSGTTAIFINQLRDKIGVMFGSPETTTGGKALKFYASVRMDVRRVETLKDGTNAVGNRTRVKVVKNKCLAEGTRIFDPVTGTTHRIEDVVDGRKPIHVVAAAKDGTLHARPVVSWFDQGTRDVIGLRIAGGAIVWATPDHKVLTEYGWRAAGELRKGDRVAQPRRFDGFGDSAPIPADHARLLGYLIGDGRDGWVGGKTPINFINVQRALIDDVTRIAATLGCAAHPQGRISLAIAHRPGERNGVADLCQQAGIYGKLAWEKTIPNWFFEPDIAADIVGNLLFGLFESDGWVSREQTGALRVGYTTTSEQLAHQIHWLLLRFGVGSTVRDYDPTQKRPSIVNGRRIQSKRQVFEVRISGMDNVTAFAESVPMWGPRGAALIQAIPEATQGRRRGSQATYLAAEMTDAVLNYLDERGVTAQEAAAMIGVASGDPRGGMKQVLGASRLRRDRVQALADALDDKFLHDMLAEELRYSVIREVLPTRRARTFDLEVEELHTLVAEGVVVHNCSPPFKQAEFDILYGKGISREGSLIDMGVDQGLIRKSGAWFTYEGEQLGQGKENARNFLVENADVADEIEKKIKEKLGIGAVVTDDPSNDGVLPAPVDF

[12] = biological target: T6, Bifunctional protein GlmU (Mycobacterium tuberculosis, UniProt P9WMN3); test: Inhibitors of Mycobacterial Glucosamine-1-phosphate acetyl transferase (GlmU). Secondary screen.; set-up: species or system Mycobacterium tuberculosis H37Rv
T6 sequence (P9WMN3 whole entry): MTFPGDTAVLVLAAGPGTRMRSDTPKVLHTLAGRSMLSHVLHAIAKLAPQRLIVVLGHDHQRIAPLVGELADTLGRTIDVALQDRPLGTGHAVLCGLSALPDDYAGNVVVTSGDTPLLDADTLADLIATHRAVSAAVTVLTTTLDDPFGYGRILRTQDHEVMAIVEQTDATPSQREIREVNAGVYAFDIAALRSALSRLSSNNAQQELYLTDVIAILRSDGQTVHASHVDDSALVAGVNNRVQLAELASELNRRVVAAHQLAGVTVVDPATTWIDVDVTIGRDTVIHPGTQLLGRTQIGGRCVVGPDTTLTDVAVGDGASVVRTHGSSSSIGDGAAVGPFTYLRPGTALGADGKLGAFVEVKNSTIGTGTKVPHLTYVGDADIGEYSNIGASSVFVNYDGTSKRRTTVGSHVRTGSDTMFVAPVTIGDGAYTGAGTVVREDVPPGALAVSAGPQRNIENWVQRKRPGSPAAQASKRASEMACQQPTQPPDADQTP

[13] = biological target: T7, Heat shock factor protein 1 (Mus musculus, UniProt P38532); test: enhancement of HSF1-driven luciferase signal – cell-based, NIH3T3, luminescence, dose retest, confirmation (AID 435004); type: functional;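 note: stress induced by proteasome inhibitor MG132 added 30 min after compound; luciferase reporter driven by HSF1 response element in NIH3T3 cells; actives raise luminescence as potentiators of the MG132 stress response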
T7 sequence (P38532 whole entry): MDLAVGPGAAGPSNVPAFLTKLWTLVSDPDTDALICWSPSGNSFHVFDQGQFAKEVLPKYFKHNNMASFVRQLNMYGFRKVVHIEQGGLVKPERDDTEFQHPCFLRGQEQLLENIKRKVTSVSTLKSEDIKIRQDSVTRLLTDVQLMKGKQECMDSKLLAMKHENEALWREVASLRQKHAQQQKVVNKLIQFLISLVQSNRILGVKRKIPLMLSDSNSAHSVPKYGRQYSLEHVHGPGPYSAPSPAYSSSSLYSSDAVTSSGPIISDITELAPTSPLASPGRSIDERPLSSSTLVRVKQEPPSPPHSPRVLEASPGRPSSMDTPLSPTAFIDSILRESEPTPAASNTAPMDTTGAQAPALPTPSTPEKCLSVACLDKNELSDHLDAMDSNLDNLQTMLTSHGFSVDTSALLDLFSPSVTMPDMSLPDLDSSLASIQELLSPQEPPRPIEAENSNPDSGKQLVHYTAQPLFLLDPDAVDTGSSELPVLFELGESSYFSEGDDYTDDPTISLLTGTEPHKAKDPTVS

CAAX prenyl protease 2 = CAAX prenyl protease 2 (Saccharomyces cerevisiae S288c, UniProt Q03530); type: biochemical
CAAX prenyl protease 2, sequence (Q03530 whole entry): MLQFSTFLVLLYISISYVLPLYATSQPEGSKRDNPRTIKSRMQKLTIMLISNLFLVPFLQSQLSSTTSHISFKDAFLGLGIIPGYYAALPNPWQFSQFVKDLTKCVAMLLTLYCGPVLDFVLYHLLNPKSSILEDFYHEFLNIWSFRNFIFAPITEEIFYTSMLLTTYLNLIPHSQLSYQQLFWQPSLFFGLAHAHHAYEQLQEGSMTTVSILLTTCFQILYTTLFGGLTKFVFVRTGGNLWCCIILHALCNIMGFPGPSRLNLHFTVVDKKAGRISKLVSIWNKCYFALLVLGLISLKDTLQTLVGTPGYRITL

Alkaline phosphatase, placental type, sequence (P05187 whole entry): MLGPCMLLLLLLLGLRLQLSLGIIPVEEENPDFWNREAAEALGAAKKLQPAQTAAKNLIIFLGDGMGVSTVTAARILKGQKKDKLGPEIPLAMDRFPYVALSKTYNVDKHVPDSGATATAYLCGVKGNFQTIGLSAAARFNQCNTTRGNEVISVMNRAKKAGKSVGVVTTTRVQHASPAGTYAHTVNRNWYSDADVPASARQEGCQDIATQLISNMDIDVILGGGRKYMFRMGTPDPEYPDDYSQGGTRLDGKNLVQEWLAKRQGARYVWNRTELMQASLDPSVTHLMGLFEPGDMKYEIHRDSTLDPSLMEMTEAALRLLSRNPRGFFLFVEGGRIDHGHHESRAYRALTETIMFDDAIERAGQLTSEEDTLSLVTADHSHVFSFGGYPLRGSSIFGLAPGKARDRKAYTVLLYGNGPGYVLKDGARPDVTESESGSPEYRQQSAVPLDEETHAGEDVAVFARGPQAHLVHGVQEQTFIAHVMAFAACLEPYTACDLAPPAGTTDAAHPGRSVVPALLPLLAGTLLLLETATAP
Voltage-dependent T-type calcium channel subunit alpha-1H, sequence (O95180 whole entry): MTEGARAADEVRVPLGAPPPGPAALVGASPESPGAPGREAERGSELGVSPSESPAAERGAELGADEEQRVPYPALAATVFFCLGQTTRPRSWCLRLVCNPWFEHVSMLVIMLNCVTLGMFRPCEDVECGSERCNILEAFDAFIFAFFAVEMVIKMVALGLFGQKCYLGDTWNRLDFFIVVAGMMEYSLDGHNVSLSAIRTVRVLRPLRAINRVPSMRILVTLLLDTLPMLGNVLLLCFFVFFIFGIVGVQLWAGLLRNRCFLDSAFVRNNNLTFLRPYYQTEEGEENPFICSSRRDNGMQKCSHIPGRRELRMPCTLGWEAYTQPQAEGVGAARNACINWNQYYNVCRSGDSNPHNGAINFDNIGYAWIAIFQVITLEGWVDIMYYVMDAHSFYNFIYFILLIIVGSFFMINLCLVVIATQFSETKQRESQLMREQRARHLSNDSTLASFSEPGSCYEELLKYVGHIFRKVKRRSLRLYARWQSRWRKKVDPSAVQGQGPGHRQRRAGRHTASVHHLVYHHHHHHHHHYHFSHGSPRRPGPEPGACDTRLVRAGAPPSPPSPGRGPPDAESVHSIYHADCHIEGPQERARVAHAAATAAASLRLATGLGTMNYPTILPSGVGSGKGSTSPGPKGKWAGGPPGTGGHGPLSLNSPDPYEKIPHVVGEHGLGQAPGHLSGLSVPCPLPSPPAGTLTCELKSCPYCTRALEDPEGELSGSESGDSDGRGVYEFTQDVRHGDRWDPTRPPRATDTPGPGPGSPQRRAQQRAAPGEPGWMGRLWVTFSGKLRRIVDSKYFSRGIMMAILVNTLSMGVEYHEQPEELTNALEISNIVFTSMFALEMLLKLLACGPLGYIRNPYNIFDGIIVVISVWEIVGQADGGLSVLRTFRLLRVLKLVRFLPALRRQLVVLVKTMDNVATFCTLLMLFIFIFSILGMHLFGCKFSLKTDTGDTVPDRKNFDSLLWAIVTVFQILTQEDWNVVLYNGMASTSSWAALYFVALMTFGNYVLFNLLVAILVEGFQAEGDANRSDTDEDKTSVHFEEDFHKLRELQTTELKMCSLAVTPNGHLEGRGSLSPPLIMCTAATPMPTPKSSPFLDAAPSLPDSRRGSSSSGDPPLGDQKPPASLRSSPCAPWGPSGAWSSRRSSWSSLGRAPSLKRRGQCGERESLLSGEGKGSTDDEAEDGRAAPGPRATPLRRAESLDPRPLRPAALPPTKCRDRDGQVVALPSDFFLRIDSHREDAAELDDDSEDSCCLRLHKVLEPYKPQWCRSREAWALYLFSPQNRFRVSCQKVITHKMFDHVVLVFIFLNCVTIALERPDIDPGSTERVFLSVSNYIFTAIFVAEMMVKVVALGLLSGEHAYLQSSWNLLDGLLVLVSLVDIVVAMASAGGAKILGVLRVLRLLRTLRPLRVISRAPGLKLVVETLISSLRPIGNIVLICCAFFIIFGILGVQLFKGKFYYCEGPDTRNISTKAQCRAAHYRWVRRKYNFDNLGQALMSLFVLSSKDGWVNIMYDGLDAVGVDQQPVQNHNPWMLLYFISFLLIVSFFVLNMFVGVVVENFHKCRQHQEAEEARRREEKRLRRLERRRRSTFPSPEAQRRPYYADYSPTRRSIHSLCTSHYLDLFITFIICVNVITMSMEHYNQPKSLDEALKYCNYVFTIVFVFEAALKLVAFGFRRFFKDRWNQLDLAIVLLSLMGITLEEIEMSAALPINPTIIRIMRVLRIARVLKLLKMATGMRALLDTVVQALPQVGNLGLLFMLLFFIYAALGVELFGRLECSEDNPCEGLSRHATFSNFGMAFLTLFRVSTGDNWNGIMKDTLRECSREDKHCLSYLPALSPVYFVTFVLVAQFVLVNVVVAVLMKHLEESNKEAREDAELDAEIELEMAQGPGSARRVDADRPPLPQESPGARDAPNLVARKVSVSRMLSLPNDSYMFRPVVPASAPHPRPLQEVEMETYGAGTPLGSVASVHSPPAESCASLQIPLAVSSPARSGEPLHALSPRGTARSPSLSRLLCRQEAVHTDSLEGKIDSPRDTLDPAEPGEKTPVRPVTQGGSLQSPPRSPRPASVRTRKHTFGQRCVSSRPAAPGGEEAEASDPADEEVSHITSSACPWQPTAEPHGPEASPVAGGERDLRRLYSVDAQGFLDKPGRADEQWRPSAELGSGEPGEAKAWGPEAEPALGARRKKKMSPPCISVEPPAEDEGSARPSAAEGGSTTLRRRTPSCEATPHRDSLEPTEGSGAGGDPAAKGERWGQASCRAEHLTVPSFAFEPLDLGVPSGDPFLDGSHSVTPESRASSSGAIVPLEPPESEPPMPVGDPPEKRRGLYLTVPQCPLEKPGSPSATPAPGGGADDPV
Large T antigen, sequence (P03070 whole entry): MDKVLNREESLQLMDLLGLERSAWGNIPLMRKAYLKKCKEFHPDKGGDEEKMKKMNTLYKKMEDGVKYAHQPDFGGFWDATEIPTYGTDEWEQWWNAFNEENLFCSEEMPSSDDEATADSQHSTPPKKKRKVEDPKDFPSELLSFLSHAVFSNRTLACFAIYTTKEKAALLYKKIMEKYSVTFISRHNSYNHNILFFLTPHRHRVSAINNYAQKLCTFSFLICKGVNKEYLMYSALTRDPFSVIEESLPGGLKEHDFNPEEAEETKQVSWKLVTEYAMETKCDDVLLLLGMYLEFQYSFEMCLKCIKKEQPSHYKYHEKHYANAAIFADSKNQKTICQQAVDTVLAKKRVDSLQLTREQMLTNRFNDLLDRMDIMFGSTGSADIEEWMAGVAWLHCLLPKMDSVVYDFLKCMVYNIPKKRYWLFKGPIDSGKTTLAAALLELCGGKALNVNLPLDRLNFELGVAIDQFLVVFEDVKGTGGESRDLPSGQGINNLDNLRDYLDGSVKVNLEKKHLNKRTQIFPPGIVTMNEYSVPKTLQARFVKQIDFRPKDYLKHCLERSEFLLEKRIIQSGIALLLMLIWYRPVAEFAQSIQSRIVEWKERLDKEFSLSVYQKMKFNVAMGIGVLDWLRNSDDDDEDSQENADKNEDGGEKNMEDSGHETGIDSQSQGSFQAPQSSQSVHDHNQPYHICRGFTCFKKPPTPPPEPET
DNA dC->dU-editing enzyme APOBEC-3A, sequence (P31941 whole entry): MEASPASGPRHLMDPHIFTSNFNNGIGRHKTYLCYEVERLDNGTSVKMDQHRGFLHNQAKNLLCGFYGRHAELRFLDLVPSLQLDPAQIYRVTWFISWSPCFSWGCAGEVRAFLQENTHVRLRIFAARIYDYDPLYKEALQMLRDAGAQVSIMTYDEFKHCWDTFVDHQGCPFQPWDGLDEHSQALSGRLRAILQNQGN
DNA dC->dU-editing enzyme APOBEC-3G, sequence (Q9HC16 whole entry): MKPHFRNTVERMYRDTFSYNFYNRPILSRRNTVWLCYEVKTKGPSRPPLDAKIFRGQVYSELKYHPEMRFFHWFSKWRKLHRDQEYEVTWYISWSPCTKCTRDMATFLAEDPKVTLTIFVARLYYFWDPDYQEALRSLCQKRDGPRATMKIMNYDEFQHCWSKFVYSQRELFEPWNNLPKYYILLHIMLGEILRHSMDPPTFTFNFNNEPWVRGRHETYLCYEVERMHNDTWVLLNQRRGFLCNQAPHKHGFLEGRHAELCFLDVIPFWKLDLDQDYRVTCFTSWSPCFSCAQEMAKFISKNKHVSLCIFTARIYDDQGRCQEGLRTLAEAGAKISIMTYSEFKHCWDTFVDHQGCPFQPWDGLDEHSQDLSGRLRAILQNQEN

C=CCn1c(SCC(=O)c2ccc(O)c(O)c2)nnc1-c1ccccc1OC
IC50 (Bcl-2-like protein 10): > 100 µM (inactive)
IC50 [1]: 2.6 µM (active) and 2.79 µM (active)
IC50 [2]: > 100 µM (inactive) and 44.8 µM (active)
IC50 (Large T antigen): 14.7 µM (active)
IC50 (Leucine aminopeptidase): 22.8 µM (active)

O=C(COc1ccc(F)c(Cl)c1)Nc1nnc(-c2ccc(F)cc2)o1
EC50 [3]: 1.7 µM (active)

CCN1C(=O)CC(C(=O)Nc2ccc(F)cc2)S/C1=N\c1ccccc1OC (centres undefined)
IC50 [4]: > 100 µM (inactive)
IC50 [5]: > 100 µM (inactive)

Cc1n(Cc2ccccc2)c2ccc(Cl)cc2[n+]1C
IC50 [6]: 4.75 µM (active)
IC50 [7]: 2.46 µM (active)

Cn1cnc([N+](=O)[O-])c1S(=O)(=O)c1ccc(Cl)cc1
AC50 [8]: 19.5 µM (active)
EC50 [9]: 6.79 µM (active)
IC50 [10]: 17.7 µM (active)
IC50 (Saccharomyces cerevisiae): 19.8 µM (active)
EC50 [11]: 5.88 µM (active)
EC50 (Protein RecA): 8.29 µM (active)
IC50 [12]: 101 µM (active)
EC50 [13]: 17.8 µM (active)

O=C(c1cnc(Cl)c(Cl)c1)N1CCC(Cc2ccccc2)CC1
AC50 (CAAX prenyl protease 2): 18.2 µM (active)
